Data: ChEMBL document CHEMBL3045059, “Efficacy of ketoenols on insecticide resistant field populations of two-spotted spider mite Tetranychus urticae and sweet potato whitefly Bemisia tabaci from Greece” (2012)
Values after ≈ are worked out from the molar mass of the structure shown.

How the values were obtained:
Assay type in all cases: functional
Tetranychus urticae [1] = experiment: Acaricidal activity against larvae of Tetranychus urticae (two-spotted spider mite) field population TU2 in bean leaves assessed as mortality applied at 1 bar pressure measured after 6 days
Tetranychus urticae [2] = experiment: Resistance ratio, ratio of LC50 for larvae of Tetranychus urticae (two-spotted spider mite) greenhouse population TU11 to LC50 for larvae of Tetranychus urticae laboratory strain SAMB measured after 6 days
Tetranychus urticae [3] = experiment: Acaricidal activity against larvae of Tetranychus urticae (two-spotted spider mite) greenhouse population TU11 in bean leaves assessed as mortality applied at 1 bar pressure measured after 6 days
Tetranychus urticae [4] = experiment: Resistance ratio, ratio of LC50 for larvae of Tetranychus urticae (two-spotted spider mite) greenhouse population TU1 to LC50 for larvae of Tetranychus urticae laboratory strain SAMB measured after 6 days
Tetranychus urticae [5] = experiment: Acaricidal activity against larvae of Tetranychus urticae (two-spotted spider mite) laboratory strain GSS in bean leaves assessed as mortality applied at 1 bar pressure measured after 6 days
Tetranychus urticae [6] = experiment: Acaricidal activity against larvae of Tetranychus urticae (two-spotted spider mite) mixed strain ALL-14 selected with spirodiclofen for 14 generations in bean leaves assessed as mortality by applying constant selection pressure under laboratory conditions
Tetranychus urticae [7] = experiment: Resistance ratio, ratio of LC50 for larvae of Tetranychus urticae (two-spotted spider mite) laboratory strain GSS to LC50 for larvae of Tetranychus urticae laboratory strain SAMB measured after 6 days
Tetranychus urticae [8] = experiment: Acaricidal activity against larvae of Tetranychus urticae (two-spotted spider mite) field population TU4 in bean leaves assessed as mortality applied at 1 bar pressure measured after 6 days
Tetranychus urticae [9] = experiment: Resistance ratio, ratio of LC50 for larvae of Tetranychus urticae (two-spotted spider mite) field population TU4 to LC50 for larvae of Tetranychus urticae laboratory strain SAMB measured after 6 days
Tetranychus urticae [10] = experiment: Acaricidal activity against larvae of Tetranychus urticae (two-spotted spider mite) greenhouse population TU9 in bean leaves assessed as mortality applied at 1 bar pressure measured after 6 days
Tetranychus urticae [11] = experiment: Resistance ratio, ratio of LC50 for larvae of Tetranychus urticae (two-spotted spider mite) greenhouse population TU5 to LC50 for larvae of Tetranychus urticae laboratory strain SAMB measured after 6 days
Tetranychus urticae [12] = experiment: Resistance ratio, ratio of LC50 for larvae of Tetranychus urticae (two-spotted spider mite) field population TU12 to LC50 for larvae of Tetranychus urticae laboratory strain SAMB measured after 6 days
Tetranychus urticae [13] = experiment: Resistance ratio, ratio of LC50 for larvae of Tetranychus urticae (two-spotted spider mite) greenhouse population TU3 to LC50 for larvae of Tetranychus urticae laboratory strain SAMB measured after 6 days
Tetranychus urticae [14] = experiment: Acaricidal activity against larvae of Tetranychus urticae (two-spotted spider mite) greenhouse population TU5 in bean leaves assessed as mortality applied at 1 bar pressure measured after 6 days
Tetranychus urticae [15] = experiment: Resistance ratio, ratio of LC50 for larvae of Tetranychus urticae (two-spotted spider mite) mixed strain ALL-14 selected with spirodiclofen for 14 generations to LC50 for larvae of Tetranychus urticae (two-spotted spider mite) laboratory strain SAMB measured after 6 days
Tetranychus urticae [16] = experiment: Resistance ratio, ratio of LC50 for larvae of Tetranychus urticae (two-spotted spider mite) field population TU2 to LC50 for larvae of Tetranychus urticae laboratory strain SAMB measured after 6 days
Tetranychus urticae [17] = experiment: Resistance ratio, ratio of LC50 for larvae of Tetranychus urticae (two-spotted spider mite) greenhouse population TU7 to LC50 for larvae of Tetranychus urticae laboratory strain SAMB measured after 6 days
Tetranychus urticae [18] = experiment: Acaricidal activity against larvae of Tetranychus urticae (two-spotted spider mite) greenhouse population TU7 in bean leaves assessed as mortality applied at 1 bar pressure measured after 6 days
Tetranychus urticae [19] = experiment: Acaricidal activity against larvae of Tetranychus urticae (two-spotted spider mite) field population TU6 in bean leaves assessed as mortality applied at 1 bar pressure measured after 6 days
Tetranychus urticae [20] = experiment: Resistance ratio, ratio of LC50 for larvae of Tetranychus urticae (two-spotted spider mite) field population TU6 to LC50 for larvae of Tetranychus urticae laboratory strain SAMB measured after 6 days
Tetranychus urticae [21] = experiment: Acaricidal activity against larvae of Tetranychus urticae (two-spotted spider mite) laboratory strain SAMB in bean leaves assessed as mortality applied at 1 bar pressure measured after 6 days
Tetranychus urticae [22] = experiment: Acaricidal activity against larvae of Tetranychus urticae (two-spotted spider mite) field population TU12 in bean leaves assessed as mortality applied at 1 bar pressure measured after 6 days
Tetranychus urticae [23] = experiment: Acaricidal activity against larvae of Tetranychus urticae (two-spotted spider mite) greenhouse population TU3 in bean leaves assessed as mortality applied at 1 bar pressure measured after 6 days
Tetranychus urticae [24] = experiment: Resistance ratio, ratio of LC50 for larvae of Tetranychus urticae (two-spotted spider mite) greenhouse population TU9 to LC50 for larvae of Tetranychus urticae laboratory strain SAMB measured after 6 days
Tetranychus urticae [25] = experiment: Acaricidal activity against larvae of Tetranychus urticae (two-spotted spider mite) greenhouse population TU1 in bean leaves assessed as mortality applied at 1 bar pressure measured after 6 days

## CCC(C)(C)C(=O)OC1=C(c2ccc(Cl)cc2Cl)C(=O)OC12CCCCC2 [SPIRODICLOFEN]
Tetranychus urticae [1]
  LC95: 18.6 µg/mL (≈ 45.2 µM)
Tetranychus urticae [1]; Tetranychus urticae, TU2, 144 h
  LC50: 3.2 µg/mL (≈ 7.78 µM)
Tetranychus urticae [2]
  RatioLC50: 3.9
Tetranychus urticae [3]
  LC95: 46.1 µg/mL (≈ 112 µM)
Tetranychus urticae [3]; Tetranychus urticae, TU11, 144 h
  LC50: 8.7 µg/mL (≈ 21.2 µM)
Tetranychus urticae [4]
  RatioLC50: 1.2
Tetranychus urticae [5]
  LC95: 4 µg/mL (≈ 9.72 µM)
Tetranychus urticae [5]; Tetranychus urticae, GSS, 144 h
  LC50: 1.4 µg/mL (≈ 3.4 µM)
Tetranychus urticae [6]
  LC95: 32.1 µg/mL (≈ 78 µM)
Tetranychus urticae [6]; Tetranychus urticae, mixed strain ALL-14
  LC50: 9.5 µg/mL (≈ 23.1 µM)
Tetranychus urticae [7]
  RatioLC50: 0.6
Tetranychus urticae [8]
  LC95: 8 µg/mL (≈ 19.4 µM)
Tetranychus urticae [8]; Tetranychus urticae, TU4, 144 h
  LC50: 2.5 µg/mL (≈ 6.08 µM)
Tetranychus urticae [9]
  RatioLC50: 1.1
Tetranychus urticae [10]
  LC95: 43.4 µg/mL (≈ 106 µM)
Tetranychus urticae [10]; Tetranychus urticae, TU9, 144 h
  LC50: 5 µg/mL (≈ 12.2 µM)
Tetranychus urticae [11]
  RatioLC50: 1.1
Tetranychus urticae [12]
  RatioLC50: 2.5
Tetranychus urticae [13]
  RatioLC50: 0.7
Tetranychus urticae [14]
  LC95: 4.6 µg/mL (≈ 11.2 µM)
Tetranychus urticae [14]; Tetranychus urticae, TU5, 144 h
  LC50: 2.5 µg/mL (≈ 6.08 µM)
Tetranychus urticae [15]
  RatioLC50: 4.3
Tetranychus urticae [16]
  RatioLC50: 1.4
Tetranychus urticae [17]
  RatioLC50: 12
Tetranychus urticae [18]
  LC95: 87.7 µg/mL (≈ 213 µM)
Tetranychus urticae [18]; Tetranychus urticae, TU7, 144 h
  LC50: 27 µg/mL (≈ 65.6 µM)
Tetranychus urticae [19]
  LC95: 2.3 µg/mL (≈ 5.59 µM)
Tetranychus urticae [19]; Tetranychus urticae, TU6, 144 h
  LC50: 0.5 µg/mL (≈ 1.22 µM)
Tetranychus urticae [20]
  RatioLC50: 0.2
Tetranychus urticae [21]
  LC95: 7.8 µg/mL (≈ 19 µM)
Tetranychus urticae [21]; Tetranychus urticae, SAMB, 144 h
  LC50: 2.2 µg/mL (≈ 5.35 µM)
Tetranychus urticae [22]
  LC95: 23.8 µg/mL (≈ 57.9 µM)
Tetranychus urticae [22]; Tetranychus urticae, TU12, 144 h
  LC50: 5.5 µg/mL (≈ 13.4 µM)
Tetranychus urticae [23]
  LC95: 5 µg/mL (≈ 12.2 µM)
Tetranychus urticae [23]; Tetranychus urticae, TU3, 144 h
  LC50: 1.6 µg/mL (≈ 3.89 µM)
Tetranychus urticae [24]
  RatioLC50: 2.2
Tetranychus urticae [25]
  LC95: 17.9 µg/mL (≈ 43.5 µM)
Tetranychus urticae [25]; Tetranychus urticae, TU1, 144 h
  LC50: 2.7 µg/mL (≈ 6.56 µM)
